Reference: patent US9426983B2, “Agrochemical composition and method for preparing the same” (priority 2007, dated 2016)

Assay: Tebuconazole concentration in the sprayed composition, determined by chromatograph
Format: physicochemical
Protocol: After the storage period of two weeks, each of the concentrates A to E was diluted with water. 10 liters of spraying compositions were prepared using hard water (CIPAC standard water D, 342 ppm) in 3 different concentrations: 0.5, 1, and 2 times the recommended spraying concentration for each concentrate.
Each diluted composition was sprayed using a personal spraying machine and using one spray nozzle equipped with 200 mesh screen. A sample of each composition was collected leaving the spraying machine after spraying.
Further, every sample of the spray compositon was analyzed in a chromatograph to determine the concentration of tebuconazole in the composition as it would be reaching the locus to be treated. […]

For CC(C)(C)C(O)(CCc1ccc(Cl)cc1)Cn1cncn1 (stereo not drawn) [Tebuconazole], the Tebuconazole concentration (0.5% dilution, 0 hr) was 2064 ppm, the Tebuconazole concentration (0.5% dilution, 1 hr) was 2039 ppm and the Tebuconazole concentration (0.5% dilution, 2 hr) was 2009 ppm. The Tebuconazole concentration (0.5% dilution, 3 hr) was 1969 ppm, the Tebuconazole concentration (0.5% dilution, 4 hr) was 1924 ppm and the Tebuconazole concentration (1.0% dilution, 0 hr) was 4150 ppm. It also gave a Tebuconazole concentration (1.0% dilution, 1 hr) of 4123 ppm, a Tebuconazole concentration (1.0% dilution, 2 hr) of 4091 ppm and a Tebuconazole concentration (1.0% dilution, 3 hr) of 4052 ppm. It also gave a Tebuconazole concentration (1.0% dilution, 4 hr) of 4007 ppm, a Tebuconazole concentration (2.0% dilution, 0 hr) of 8300 ppm and a Tebuconazole concentration (2.0% dilution, 1 hr) of 8272 ppm. The Tebuconazole concentration (2.0% dilution, 2 hr) was 8237 ppm, the Tebuconazole concentration (2.0% dilution, 3 hr) was 8197 ppm and the Tebuconazole concentration (2.0% dilution, 4 hr) was 8152 ppm.
